Assay results taken from publication PMC9234961 (Journal of Medicinal Chemistry, 2022).

Biological target: T1, AR (Homo sapiens, UniProt P10275)
T1 sequence (P10275 1-920): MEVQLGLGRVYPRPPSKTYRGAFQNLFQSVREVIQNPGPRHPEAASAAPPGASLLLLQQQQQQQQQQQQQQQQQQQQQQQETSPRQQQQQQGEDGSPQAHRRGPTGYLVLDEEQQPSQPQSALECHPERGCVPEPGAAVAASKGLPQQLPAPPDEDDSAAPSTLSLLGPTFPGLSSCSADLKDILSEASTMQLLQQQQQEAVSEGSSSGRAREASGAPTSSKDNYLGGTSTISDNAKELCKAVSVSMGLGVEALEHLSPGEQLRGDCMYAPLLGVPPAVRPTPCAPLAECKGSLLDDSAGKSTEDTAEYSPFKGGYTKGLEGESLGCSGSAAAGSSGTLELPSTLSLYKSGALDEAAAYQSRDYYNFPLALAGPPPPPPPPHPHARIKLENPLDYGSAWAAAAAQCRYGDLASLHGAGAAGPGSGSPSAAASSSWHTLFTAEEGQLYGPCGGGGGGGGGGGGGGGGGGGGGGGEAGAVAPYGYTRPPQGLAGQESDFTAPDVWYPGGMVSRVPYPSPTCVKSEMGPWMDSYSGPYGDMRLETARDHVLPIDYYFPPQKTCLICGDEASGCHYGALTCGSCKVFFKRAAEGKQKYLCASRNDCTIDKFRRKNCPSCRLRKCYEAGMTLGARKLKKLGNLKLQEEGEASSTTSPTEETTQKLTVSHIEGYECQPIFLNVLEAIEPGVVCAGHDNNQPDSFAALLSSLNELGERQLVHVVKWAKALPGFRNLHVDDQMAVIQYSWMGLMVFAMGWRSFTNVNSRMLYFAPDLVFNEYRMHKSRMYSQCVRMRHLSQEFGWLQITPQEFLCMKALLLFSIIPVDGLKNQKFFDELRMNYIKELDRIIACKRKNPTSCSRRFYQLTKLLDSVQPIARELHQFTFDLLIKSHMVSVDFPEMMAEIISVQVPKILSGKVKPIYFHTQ
Experiment: SAFETYScan NHR Nuclear Translocation, Antagonist
Format: cell-based
Text: Supplement jm1c02175_si_002.xlsx, sheet "SAFETYScan" | column: RC50 (uM); Max Response

C[C@H]1C[C@@H](O)CN(c2ncc(Cl)c(Nc3ccc4c(c3)c3c(c(=O)n4C)OCC(F)(F)[C@H](C4CC4)N3)n2)C1 [12a CCT373566, (S)-10-((5-Chloro-2-((3R,5S)-3-hydroxy-5-methylpiperidin-1-yl)pyrimidin-4-yl)amino)-2-cyclopropyl-3,3-difluoro-7-methyl-1,2,3,4-tetrahydro-[1,4]oxazepino[2,3-c]quinolin-6(7H)-one]
Emax (read-out: Max Response): 0%
IC50 (read-out: RC50 (IC50)): > 10 µM
